From ChEMBL document CHEMBL1125955, “Synthesis of new disoxaril analogues with potent and selective anti-human rhinovirus 14 activity” (1991) come the findings set out here.

In brackets after ≈: the same amount, converted by molar mass.

Assay [1] relates to HeLa. The assay can be described thus: Maximum testable level (antiviral activity) was evaluated in HeLa cells against human rhino virus. The format is functional.
For assay [2], the system named is Vero. Nature of the assay: Maximum testable level was evaluated in Vero cells that causes no apparent effects on cell monolayers. The format is functional, Chlorocebus sabaeus.
Assay [3] concerns Vero. Nature of the assay: Minimum inhibitory concentration (antiviral activity) was screened in Vero cells against Coxsackie B1 (Coxs). The format is functional. As to conditions: Chlorocebus sabaeus.
Assay [4] has as its system Vero. Nature of the assay: Minimum inhibitory concentration (antiviral activity) was screened in Vero cells against herpes simplex virus type 1 (HSV-1). The format is functional. As to conditions: Chlorocebus sabaeus.
Assay [5] relates to HeLa. The assay can be described thus: Minimum inhibitory concentration (antiviral activity) was evaluated n HeLa cells against human rhino virus. The format is functional.
The subject of assay [6] is Vero. The assay can be described thus: Minimum inhibitory concentration (antiviral activity) was screened in Vero cells against polio type 1 (Sabin strain, Sb-1). As to conditions: Chlorocebus sabaeus. Format: functional.
Assay [7] can be described thus: Selectivity index was determined as ratio of maximum testable level to that of minimum inhibitory concentration. Format: functional.
Assay [8] in a line: Selectivity index was the ratio of maximum testable level to that of minimum inhibitory concentration in human rhino virus. The format is functional.
For assay [9], the system named is Vero. The assay can be described thus: Minimum inhibitory concentration (antiviral activity) was screened in Vero cells against Vesicular Stomatitis virus (VSV). The format is functional. As to conditions: Chlorocebus sabaeus.
Assay [10] has as its system Vero. The assay can be described thus: Minimum inhibitory concentration (antiviral activity) was screened in Vero cells against vaccinia virus (VV). Format: functional. As to conditions: Chlorocebus sabaeus.

As to `Cn1cc(C(=O)CCCCOc2ccc(C3=NCCO3)cc2)cc1C=O`, the MTL with HeLa [1] was more than 565 µM; in the assay with Vero [2] it was more than 280 µM. For the same molecule, the MIC with Vero [3] was more than 280 µM; in the assay with Vero [4], more than 280 µM; with HeLa [5] it was 20 µM (≈ 7.09 µg/mL).

As for `O=C(CCCCOc1ccc(C2=NCCO2)cc1)c1ccc(Cl)s1`, the MTL in the assay on HeLa [1] is more than 550 µM; in the assay with Vero [2] it was more than 275 µM. Besides, the MIC in the assay with Vero [3] is more than 275 µM; with Vero [4], more than 275 µM; with Vero [6], 200 µM (≈ 72.8 µg/mL); in the assay on HeLa [5], 0.1 µM (≈ 0.0364 µg/mL). Besides, the Selectivity index in [7] is more than 5500.

For `O=C(CCCCOc1ccc(C2=NCCO2)cc1)c1ccc[nH]1`, the MTL is more than 640 µM in the assay on HeLa [1] and more than 175 µM with Vero [2]. The MIC was more than 175 µM in the assay with Vero [3], more than 175 µM in the assay on Vero [4], 60 µM (≈ 18.7 µg/mL) against Vero [6] and 7.5 µM (≈ 2.34 µg/mL) against HeLa [5].

`O=C(O)c1ccc(OCCCCC(=O)c2ccc(Cl)s2)cc1`: the MTL in the assay with HeLa [1] is more than 590 µM; with Vero [2], more than 170 µM. Moreover, the MIC was more than 170 µM in the assay with Vero [3], more than 170 µM against Vero [4], 30 µM (≈ 10.2 µg/mL) against Vero [6] and more than 50 µM in the assay with HeLa [5].

For `CCOC(=O)c1ccc(OCCCCC(=O)c2ccc(Cl)s2)cc1`, the MTL was more than 545 µM in the assay on HeLa [1] and more than 190 µM with Vero [2]. Moreover, the MIC was more than 190 µM with Vero [3], more than 190 µM with Vero [4], 80 µM (≈ 29.3 µg/mL) against Vero [6] and 0.4 µM (≈ 0.147 µg/mL) against HeLa [5]. Moreover, the Selectivity index in [8] is more than 1362.

Turning to `Cn1cccc1C(=O)CCCCOc1ccc(C2=NCCO2)cc1`, the MTL was more than 610 µM in the assay on HeLa [1] and more than 300 µM in the assay with Vero [2]. The MIC against Vero [3] was more than 300 µM; in the assay with Vero [4] it was more than 300 µM; in the assay on Vero [6], 300 µM (≈ 97.9 µg/mL); against HeLa [5], 1.5 µM (≈ 0.49 µg/mL). Moreover, the Selectivity index in assay [7] is more than 406.

As to `CCOC(=O)c1ccc(OCCCCC(=O)c2ccc(C)o2)cc1`, the MTL is 65 µM in the assay with HeLa [1] and more than 120 µM with Vero [2]. Moreover, the MIC is 60 µM (≈ 19.8 µg/mL) in the assay with Vero [3]; more than 120 µM with Vero [9]; 75 µM (≈ 24.8 µg/mL) in the assay with Vero [4]; 15 µM (≈ 4.96 µg/mL) in the assay on Vero [6]; 30 µM (≈ 9.91 µg/mL) in the assay on Vero [10]; 2.4 µM (≈ 0.793 µg/mL) against HeLa [5].

For `CCOC(=O)c1ccc(OCCCCC(=O)c2cc(C=O)n(C)c2)cc1`, the results for the MTL with HeLa [1] and with Vero [2] were more than 20 µM and 55 µM, respectively. The MIC with Vero [4] is more than 55 µM; in the assay with Vero [6] it was 5 µM (≈ 1.79 µg/mL); in the assay with HeLa [5], 1.4 µM (≈ 0.5 µg/mL).

For the molecule `Clc1ccc(CCCCCOc2ccc(C3=NCCO3)cc2)s1`, the MTL with HeLa [1] is more than 60 µM; in the assay on Vero [2], 30 µM. Besides, the MIC against Vero [3] is more than 30 µM; in the assay on Vero [4] it was more than 30 µM; against Vero [6], 25 µM (≈ 8.75 µg/mL); against HeLa [5] it was 2.8 µM (≈ 0.98 µg/mL).

With `Cc1cc(CCCCCCCOc2ccc(C3=NCCO3)cc2)on1` [DISOXARIL], the MTL with HeLa [1] was more than 18 µM. For the same molecule, the Selectivity index in assay [8] came to 45. This molecule gave an MIC against HeLa [5] of 0.4 µM (≈ 0.137 µg/mL).

`O=C(O)c1ccc(OCCCCCc2ccc(Cl)s2)cc1`: the values for the MTL with HeLa [1] and in the assay with Vero [2] were 20 µM and 60 µM, respectively. Further, the MIC in the assay with Vero [3] was more than 60 µM; against Vero [4] it was more than 60 µM; with Vero [6] it was 20 µM (≈ 6.5 µg/mL); with HeLa [5] it was more than 20 µM.

On to `Cn1cc(C(=O)CCCCOc2ccc(C(=O)O)cc2)cc1C=O`, for which the MTL with HeLa [1] was more than 610 µM; in the assay with Vero [2] it was 380 µM. Moreover, the MIC in the assay on Vero [3] is more than 380 µM; in the assay with Vero [4], more than 380 µM; against Vero [6] it was 380 µM (≈ 125 µg/mL); against HeLa [5], more than 50 µM.
